Results reported in US8541427B2, “Phenyl-substituted 2-imino-3-methyl pyrrolo pyrimidinone compounds as BACE-1 inhibitors, compositions, and their use” (Merck, Sharp & Dohme, Corp., priority 2008, dated 2013).
Like-named read-outs stand apart in the source and are kept apart here.

Key:
[1] = target: human liver Cathepsin D (Homo sapiens (Human), UniProt P07339); assay: Human Cathepsin D FRET Assay; type: biochemical; settings: selectivity with respect to Cathepsin D vs BACE1
[2] = target: CYP2D6 (Homo sapiens (Human), UniProt P10635); assay: CYP Inhibition Assay, CYP2D6; type: in vitro ADME; settings: human liver microsomes
Chain of CYP2D6 (P10635 whole entry): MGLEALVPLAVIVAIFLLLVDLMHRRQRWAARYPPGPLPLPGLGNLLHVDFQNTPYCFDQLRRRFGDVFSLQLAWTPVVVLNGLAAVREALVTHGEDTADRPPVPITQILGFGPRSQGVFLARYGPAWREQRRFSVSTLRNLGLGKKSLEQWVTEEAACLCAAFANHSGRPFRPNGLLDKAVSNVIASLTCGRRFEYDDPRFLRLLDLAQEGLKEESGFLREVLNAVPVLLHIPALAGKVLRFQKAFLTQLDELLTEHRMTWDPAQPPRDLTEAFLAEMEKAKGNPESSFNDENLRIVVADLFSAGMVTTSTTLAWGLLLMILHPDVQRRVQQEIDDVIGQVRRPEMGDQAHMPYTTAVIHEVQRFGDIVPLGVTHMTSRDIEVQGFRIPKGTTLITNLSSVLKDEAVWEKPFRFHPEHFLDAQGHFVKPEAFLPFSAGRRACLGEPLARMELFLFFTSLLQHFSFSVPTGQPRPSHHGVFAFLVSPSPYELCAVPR

[3] = target: CYP2C9 (Homo sapiens (Human), UniProt P11712); assay: CYP Inhibition Assay, CYP2C9; type: in vitro ADME; settings: human liver microsomes;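 note: probe substrate held close to its Km, with metabolite formation quantified by LC-MS/MS against a calibration curve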
Chain of CYP2C9 (P11712 whole entry, the tested form may be a part): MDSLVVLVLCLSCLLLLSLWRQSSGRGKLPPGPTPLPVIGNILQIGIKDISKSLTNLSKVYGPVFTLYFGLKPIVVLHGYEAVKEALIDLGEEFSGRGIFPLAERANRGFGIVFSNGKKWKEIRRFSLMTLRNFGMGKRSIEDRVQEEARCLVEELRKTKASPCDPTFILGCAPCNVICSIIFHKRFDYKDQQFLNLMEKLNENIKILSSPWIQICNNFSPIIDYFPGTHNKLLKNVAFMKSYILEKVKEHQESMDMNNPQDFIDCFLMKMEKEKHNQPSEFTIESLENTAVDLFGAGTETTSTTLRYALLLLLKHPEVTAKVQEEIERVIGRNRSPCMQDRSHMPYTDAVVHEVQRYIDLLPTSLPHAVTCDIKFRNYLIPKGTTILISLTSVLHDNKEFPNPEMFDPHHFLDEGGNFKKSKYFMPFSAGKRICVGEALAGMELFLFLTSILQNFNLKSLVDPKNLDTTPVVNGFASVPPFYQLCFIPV

[4] = target: soluble human BACE1 catalytic domain (Homo sapiens (Human), UniProt P56817); assay: BACE1 HTRF FRET Assay; type: biochemical; settings: Ki calculated from IC50 with Cheng-Prusoff equation;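 note: cleavage of a quenched APP Swedish mutant peptide (QSY7 quencher, Europium donor) measured as rise in 620 nm fluorescence after 1.5 h at 30 °C, inhibition suppresses signal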
Chain of soluble human BACE1 catalytic domain (P56817 75-416): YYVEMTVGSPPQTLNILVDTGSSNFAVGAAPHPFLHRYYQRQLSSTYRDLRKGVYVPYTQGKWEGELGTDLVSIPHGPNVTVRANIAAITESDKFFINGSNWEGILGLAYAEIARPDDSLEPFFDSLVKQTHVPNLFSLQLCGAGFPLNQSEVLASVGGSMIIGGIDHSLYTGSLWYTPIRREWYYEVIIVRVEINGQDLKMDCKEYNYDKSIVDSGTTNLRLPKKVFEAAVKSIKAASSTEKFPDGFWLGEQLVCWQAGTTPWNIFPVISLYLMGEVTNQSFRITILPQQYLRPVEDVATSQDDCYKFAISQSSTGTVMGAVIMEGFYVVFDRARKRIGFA

[5] = target: CYP3A4 (Homo sapiens (Human), UniProt P08684); assay: CYP Inhibition Assay, CYP3A4; type: in vitro ADME; settings: human liver microsomes;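 note: CYP probe substrate held near its Km, inhibition judged from metabolite formation quantified by LC-MS/MS against a standard curve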
Chain of CYP3A4 (P08684 whole entry): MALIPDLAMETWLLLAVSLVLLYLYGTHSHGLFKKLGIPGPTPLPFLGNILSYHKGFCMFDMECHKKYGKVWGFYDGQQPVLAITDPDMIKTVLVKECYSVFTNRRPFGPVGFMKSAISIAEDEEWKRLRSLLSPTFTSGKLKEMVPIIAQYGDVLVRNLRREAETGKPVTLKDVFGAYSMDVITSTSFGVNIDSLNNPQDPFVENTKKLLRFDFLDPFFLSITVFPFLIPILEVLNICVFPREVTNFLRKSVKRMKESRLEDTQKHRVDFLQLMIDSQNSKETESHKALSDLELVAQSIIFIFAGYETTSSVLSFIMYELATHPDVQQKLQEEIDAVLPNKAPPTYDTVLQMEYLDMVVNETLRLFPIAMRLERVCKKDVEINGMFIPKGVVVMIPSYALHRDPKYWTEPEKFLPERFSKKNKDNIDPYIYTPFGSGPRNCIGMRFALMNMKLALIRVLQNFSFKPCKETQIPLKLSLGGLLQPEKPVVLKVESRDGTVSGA

[6] = target: BACE1 (Aβ40 in HEK293-APPswe/lon cells) (Homo sapiens (Human), UniProt P56817); assay: BACE Inhibitor Whole Cell IC50 Determination Using HEK293-APPswe/lon Cells (Aβ40); type: cell-based; settings: 4 hours
Chain of BACE1 (Aβ40 in HEK293-APPswe/lon cells) (P56817 46-501): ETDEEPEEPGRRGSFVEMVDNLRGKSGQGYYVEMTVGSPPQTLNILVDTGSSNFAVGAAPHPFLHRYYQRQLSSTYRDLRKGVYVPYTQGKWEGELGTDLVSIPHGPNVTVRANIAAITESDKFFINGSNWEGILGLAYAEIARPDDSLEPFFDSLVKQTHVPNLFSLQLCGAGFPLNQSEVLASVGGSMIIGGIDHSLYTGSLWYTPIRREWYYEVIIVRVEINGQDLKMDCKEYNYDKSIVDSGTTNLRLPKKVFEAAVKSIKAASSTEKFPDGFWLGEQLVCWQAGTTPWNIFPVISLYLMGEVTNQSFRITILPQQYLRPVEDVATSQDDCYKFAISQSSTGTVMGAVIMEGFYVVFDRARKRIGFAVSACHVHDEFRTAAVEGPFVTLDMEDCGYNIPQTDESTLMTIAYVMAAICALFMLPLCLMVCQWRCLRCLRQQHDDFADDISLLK

[7] = target: hERG (Homo sapiens (Human), UniProt Q12809); assay: hERG screening, IonWorks Quattro (hERG L929 cells); type: cell-based; settings: L929 cells expressing hERG; for inhibition at 5 min, 1 uM: read-out: HERG Ionworks % Inhib 1 uM; for inhibition at 5 min, 10 uM: read-out: HERG Ionworks % Inhib 10 uM
Chain of hERG (Q12809 whole entry): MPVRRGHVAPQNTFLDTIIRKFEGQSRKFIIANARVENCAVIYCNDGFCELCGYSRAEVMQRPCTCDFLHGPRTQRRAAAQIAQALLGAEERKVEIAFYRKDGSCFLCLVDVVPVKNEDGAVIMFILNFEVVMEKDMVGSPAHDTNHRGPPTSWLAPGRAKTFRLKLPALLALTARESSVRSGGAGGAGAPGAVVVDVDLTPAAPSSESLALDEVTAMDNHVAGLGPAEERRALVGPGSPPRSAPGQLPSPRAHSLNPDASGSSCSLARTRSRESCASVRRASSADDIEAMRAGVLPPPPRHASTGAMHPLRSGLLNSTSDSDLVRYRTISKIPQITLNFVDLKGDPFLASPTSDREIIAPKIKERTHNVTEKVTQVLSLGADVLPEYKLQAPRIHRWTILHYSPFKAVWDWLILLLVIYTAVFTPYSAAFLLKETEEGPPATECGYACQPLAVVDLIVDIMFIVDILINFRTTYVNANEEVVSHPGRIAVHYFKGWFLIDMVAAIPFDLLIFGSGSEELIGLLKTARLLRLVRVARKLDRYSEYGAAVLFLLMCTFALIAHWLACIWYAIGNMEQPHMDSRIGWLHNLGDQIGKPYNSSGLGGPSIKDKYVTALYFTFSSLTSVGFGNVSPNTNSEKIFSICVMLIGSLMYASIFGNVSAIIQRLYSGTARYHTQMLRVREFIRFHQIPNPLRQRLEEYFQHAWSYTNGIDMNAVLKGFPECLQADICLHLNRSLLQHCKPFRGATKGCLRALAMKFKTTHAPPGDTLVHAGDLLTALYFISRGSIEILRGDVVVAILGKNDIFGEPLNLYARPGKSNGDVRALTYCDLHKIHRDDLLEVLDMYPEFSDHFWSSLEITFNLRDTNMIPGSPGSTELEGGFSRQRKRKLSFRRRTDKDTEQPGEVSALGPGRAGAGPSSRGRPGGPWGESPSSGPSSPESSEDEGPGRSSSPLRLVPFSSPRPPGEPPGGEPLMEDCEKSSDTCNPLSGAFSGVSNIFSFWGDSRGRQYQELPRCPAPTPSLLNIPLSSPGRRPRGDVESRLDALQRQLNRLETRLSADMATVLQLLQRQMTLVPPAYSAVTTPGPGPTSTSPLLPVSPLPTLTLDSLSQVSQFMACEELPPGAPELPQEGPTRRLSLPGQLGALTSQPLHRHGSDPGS

[8] = 30 min pre-incubation with NADPH, read-out: CYP 2D6 IC50 pre
[9] = co-incubation, read-out: CYP 2D6 IC50 co
[10] = 30 min pre-incubation with NADPH, read-out: CYP 2C9 IC50 pre
[11] = co-incubation, read-out: CYP 2C9 IC50 co
[12] = 30 min pre-incubation with NADPH, read-out: CYP 3A4 IC50 pre
[13] = co-incubation, read-out: CYP 3A4 IC50 co

Chain of human liver Cathepsin D (P07339 65-412): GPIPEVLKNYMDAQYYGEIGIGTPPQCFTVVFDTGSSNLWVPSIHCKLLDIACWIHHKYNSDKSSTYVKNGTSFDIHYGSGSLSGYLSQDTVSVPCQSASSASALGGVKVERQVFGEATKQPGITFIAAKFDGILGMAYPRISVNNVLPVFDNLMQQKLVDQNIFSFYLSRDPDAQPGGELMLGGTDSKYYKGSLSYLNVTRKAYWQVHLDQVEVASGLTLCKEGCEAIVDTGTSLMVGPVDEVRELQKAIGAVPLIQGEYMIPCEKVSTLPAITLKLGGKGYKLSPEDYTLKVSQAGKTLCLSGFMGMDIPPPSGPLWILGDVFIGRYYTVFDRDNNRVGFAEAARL
Chain of human liver Cathepsin D (P07339 169-412): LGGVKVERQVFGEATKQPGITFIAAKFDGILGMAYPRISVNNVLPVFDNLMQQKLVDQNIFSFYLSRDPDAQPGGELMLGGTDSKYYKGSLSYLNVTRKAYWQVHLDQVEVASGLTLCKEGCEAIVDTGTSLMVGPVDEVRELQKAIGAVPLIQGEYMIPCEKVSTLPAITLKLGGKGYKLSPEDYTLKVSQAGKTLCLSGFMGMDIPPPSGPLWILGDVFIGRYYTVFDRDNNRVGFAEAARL

| CathD Selectivity [1] | IC50 [2, 8] | IC50 [2, 9] | IC50 [3, 10] | IC50 [3, 11] | Ki [4] | IC50 [5, 12] | IC50 [5, 13] | IC50 [6] | SMILES | inhibition at 5 min, 1 uM [7] | inhibition at 5 min, 10 uM [7] |
| --- | --- | --- | --- | --- | --- | --- | --- | --- | --- | --- | --- |
| 209 | > 20 µM | > 20 µM | > 20 µM | > 20 µM | 0.0027 µM | > 20 µM | > 20 µM | 0.031 µM | COc1nc(N2C[C@H]3C(=O)N(C)C(=N)N[C@@]3(c3ccc(F)cc3F)C2)nc(C2CC2)c1F [Example 38] | 12% | 63% |
| 634 | > 20 µM | > 20 µM | ~20 µM | ~20 µM | 0.0065 µM | ~20 µM | > 20 µM | 0.09 µM | COc1nc(N2C[C@H]3C(=O)N(C)C(=N)N[C@@]3(c3cc(F)ccc3F)C2)nc(C2CC2)c1Cl [Example 35] | 5% | 23% |
| 236 | > 20 µM | > 20 µM | > 20 µM | > 20 µM | 0.0068 µM | > 20 µM | > 20 µM | 0.117 µM | COc1nc(N2C[C@H]3C(=O)N(C)C(=N)N[C@@]3(c3ccc(F)cc3F)C2)nc(C2CC2)c1Cl [Example 19] | 3% | 20% |
| 163 | > 30 µM | > 30 µM | > 30 µM | > 30 µM | 0.0061 µM | > 30 µM | > 30 µM | 0.022 µM | CCc1nc(N2C[C@H]3C(=O)N(C)C(=N)N[C@@]3(c3ccc(F)cc3)C2)nc(OC)c1F [Example 30] | 2% | 31% |
| 162 | > 20 µM | > 20 µM | > 20 µM | > 20 µM | – | > 20 µM | > 20 µM | – | COc1nc(N2C[C@H]3C(=O)N(C)C(=N)N[C@@]3(c3cc(F)ccc3Cl)C2)nc(C)c1F [Example 2] | 8% | 50% |
| 318 | ~30 µM | 24.9 µM | > 30 µM | > 30 µM | 0.016 µM | > 30 µM | > 30 µM | 0.144 µM | CCc1nc(N2C[C@H]3C(=O)N(C)C(=N)N[C@@]3(c3ccccc3)C2)nc(OC)c1F (racemic) [6 racemic] | – | – |
| – | > 30 µM | ~30 µM | > 30 µM | > 30 µM | – | > 30 µM | > 30 µM | – | CCOc1nc(N2C[C@H]3C(=O)N(C)C(N)=N[C@@]3(c3ccccc3)C2)nc(C)c1F (racemic) [4 racemic] | – | – |
| – | > 20 µM | > 20 µM | > 20 µM | > 20 µM | – | > 20 µM | > 20 µM | – | COc1nc(N2C[C@H]3C(=O)N(C)C(N)=N[C@@]3(c3c(F)ccc(F)c3F)C2)nc(C)c1F [Example 40] | 15% | 81% |
| – | > 20 µM | > 20 µM | > 20 µM | > 20 µM | – | > 20 µM | > 20 µM | – | COc1nc(N2C[C@H]3C(=O)N(C)C(N)=N[C@@]3(c3cc(F)c(F)cc3F)C2)nc(C)c1F [Example 8] | 21% | 89% |
| 346 | – | – | – | – | 0.032 µM | – | – | 0.067 µM | COc1nc(N2C[C@H]3C(=O)N(C)C(=N)N[C@@]3(c3ccc(F)cc3F)C2)nc(C(F)(F)F)c1F [Example 41] | 1% | 77% |
| 583 | > 30 µM | ~30 µM | > 30 µM | > 30 µM | 0.0018 µM | > 30 µM | > 30 µM | 0.0075 µM | COc1nc(N2C[C@H]3C(=O)N(C)C(=N)N[C@@]3(c3ccc(F)cc3F)C2)nc(OC)c1F [Example 10] | 7% | 74% |
| 310 | > 20 µM | > 20 µM | > 20 µM | > 20 µM | 0.0053 µM | > 20 µM | > 20 µM | 0.026 µM | CCc1nc(N2C[C@H]3C(=O)N(C)C(=N)N[C@@]3(c3ccc(F)cc3F)C2)nc(OC)c1F [Example 32] | 19% | 95% |
| – | > 30 µM | ~30 µM | > 30 µM | > 30 µM | 0.061 µM | > 30 µM | > 30 µM | 0.217 µM | CCc1nc(N2C[C@H]3C(=O)N(C)C(N)=N[C@@]3(c3ccccc3)C2)nc(C)c1F (racemic) [5 racemic] | – | – |
| 1063 | ~30 µM | 14.7 µM | > 30 µM | > 30 µM | 0.0044 µM | 4.2 µM | > 30 µM | 0.0615 µM | COc1nc(N2C[C@H]3C(=O)N(C)C(=N)N[C@@]3(c3ccc(F)cc3)C2)nc(OC)c1F [Example 27] | 2% | 51% |
| – | – | – | – | – | 0.011 µM | – | – | – | COc1nc(N2C[C@H]3C(=O)N(C)C(=N)N[C@@]3(c3ccc(F)cc3F)C2)nc(C(C)(F)F)c1F [Example 42] | – | – |
| – | > 20 µM | > 20 µM | > 20 µM | > 20 µM | 0.18 µM | > 20 µM | > 20 µM | – | CCc1nc(N2C[C@H]3C(=O)N(C)C(N)=N[C@@]3(c3ccccc3)C2)nc(C2CC2)c1Cl (racemic) [26 racemic] | – | – |
| 50 | 10.1 µM | 13.7 µM | > 20 µM | > 20 µM | 0.0048 µM | > 20 µM | > 20 µM | 0.05 µM | COc1nc(N2C[C@H]3C(=O)N(C)C(=N)N[C@@]3(c3ccc(F)cc3)C2)nc(C2CC2)c1F [Example 21] | 7% | 73% |
| 129 | ~30 µM | 22.6 µM | > 30 µM | > 30 µM | 0.137 µM | > 30 µM | > 30 µM | – | CCOc1nc(N2C[C@H]3C(=O)N(C)C(=N)N[C@@]3(c3ccccc3)C2)nc(OC)c1F (racemic) [24 racemic] | – | – |
| – | > 20 µM | > 20 µM | > 20 µM | > 20 µM | 0.026 µM | > 20 µM | > 20 µM | 0.235 µM | Cc1nc(N2C[C@H]3C(=O)N(C)C(=N)N[C@@]3(c3cc(F)ccc3F)C2)nc(C2CC2)c1F [Example 37] | 12% | 73% |
| 773 | > 20 µM | > 20 µM | > 20 µM | > 20 µM | 0.015 µM | > 20 µM | > 20 µM | 0.021 µM | COc1nc(N2C[C@H]3C(=O)N(C)C(=N)N[C@@]3(c3c(F)cc(F)cc3F)C2)nc(C)c1F [Example 13] | – | – |
| – | > 20 µM | > 20 µM | > 20 µM | > 20 µM | 0.043 µM | > 20 µM | > 20 µM | 0.213 µM | Cc1nc(N2C[C@H]3C(=O)N(C)C(=N)N[C@@]3(c3cccc(C#N)c3)C2)nc(C2CC2)c1F [Example 14] | 6% | 59% |
| – | – | – | – | – | 0.094 µM | – | – | 0.664 µM | Cc1nc(N2C[C@H]3C(=O)N(C)C(N)=N[C@@]3(c3ccccc3)C2)nc(C2CC2)c1Cl (racemic) [7 racemic] | – | – |
| – | > 20 µM | > 20 µM | > 20 µM | > 20 µM | 0.044 µM | > 20 µM | > 20 µM | 0.349 µM | Cc1nc(N2C[C@H]3C(=O)N(C)C(N)=N[C@@]3(c3ccccc3)C2)nc(C2CC2)c1F (racemic) [25 racemic] | – | – |
| 43 | – | – | – | – | 0.039 µM | – | – | 0.176 µM | COc1nc(N2C[C@H]3C(=O)N(C)C(=N)N[C@@]3(c3cccc(Cl)c3)C2)nc(C)c1F [Example 33] | – | – |
| – | > 30 µM | > 30 µM | > 30 µM | > 30 µM | 0.154 µM | > 30 µM | > 30 µM | 0.292 µM | Cc1nc(N2C[C@H]3C(=O)N(C)C(N)=N[C@@]3(c3ccccc3)C2)nc(C)c1F (racemic) [23 racemic] | – | – |
| 228 | – | – | – | – | 0.0093 µM | – | – | 0.032 µM | COc1nc(N2C[C@H]3C(=O)N(C)C(=N)N[C@@]3(c3ccccc3F)C2)nc(C)c1Cl [Example 18] | – | – |
| – | > 20 µM | > 20 µM | 12.7 µM | 8.5 µM | – | > 20 µM | > 20 µM | – | COc1nc(N2C[C@H]3C(=O)N(C)C(=N)N[C@@]3(c3cc(Cl)ccc3F)C2)nc(C)c1F [Example 3] | 22% | 89% |
